5 compounds from ChEMBL document CHEMBL2146471, “Derivatives of heteroarylsulfonamides, their preparation, and their application in human therapy: patent highlight” (ACS Med Chem Lett, 2012) can be followed below.

The target in the assay is Potassium voltage-gated channel subfamily A member 5 (Homo sapiens) (UniProt P22460). As to the kind of experiment: Inhibition of Kv1.5 ion channel expressed in HEK293 cells at 10 uM by FLIPR assay. In kind it is cell-based.
Sequence of Potassium voltage-gated channel subfamily A member 5 (Homo sapiens) (P22460 whole entry): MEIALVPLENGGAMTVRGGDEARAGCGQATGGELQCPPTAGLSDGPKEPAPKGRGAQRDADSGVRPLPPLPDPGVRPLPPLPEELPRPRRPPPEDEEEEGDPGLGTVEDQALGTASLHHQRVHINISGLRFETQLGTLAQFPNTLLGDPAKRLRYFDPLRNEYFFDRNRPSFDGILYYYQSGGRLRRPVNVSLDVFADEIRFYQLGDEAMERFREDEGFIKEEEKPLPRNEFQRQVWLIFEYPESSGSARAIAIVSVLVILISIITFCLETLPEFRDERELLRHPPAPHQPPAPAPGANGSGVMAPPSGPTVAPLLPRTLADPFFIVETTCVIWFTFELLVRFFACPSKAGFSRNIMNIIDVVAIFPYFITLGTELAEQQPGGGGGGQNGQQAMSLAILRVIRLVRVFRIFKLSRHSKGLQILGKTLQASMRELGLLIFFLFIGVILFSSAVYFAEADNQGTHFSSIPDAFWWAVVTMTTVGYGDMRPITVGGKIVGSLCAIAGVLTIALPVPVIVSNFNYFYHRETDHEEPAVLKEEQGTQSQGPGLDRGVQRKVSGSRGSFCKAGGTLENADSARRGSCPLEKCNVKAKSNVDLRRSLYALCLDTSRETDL

`O=S(=O)(Nc1ccccc1OC1CCN(c2nc3ccc(Br)cc3s2)CC1)c1ccccn1`: the inhibition is 100%.
For `O=C(c1ccccc1NS(=O)(=O)c1ccccn1)N1CCN(c2nc3ccc(Br)cc3s2)CC1` the value was 100%.
In turn, `O=C(c1cccc(NS(=O)(=O)c2ccccn2)c1)N1CCN(c2nc3ccc(Cl)cc3s2)CC1` had an inhibition of 75.1%.
Compound `O=C(c1ccc(NS(=O)(=O)c2ccccn2)cc1)N1CCN(c2nc3ccc(F)cc3s2)CC1` yielded an inhibition of 100%.
For `O=S(=O)(Nc1ccccc1OCC1CCN(c2nc3ccccc3s2)C1)c1ccccn1` (stereo not given), the inhibition was determined as 76%.
